From PubChem BioAssay (NCI)
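Results reflect a 48-hour exposure of cells in 96-well plates to compound at five concentrations. GI50 marks 50% less growth. TGI denotes the concentration required for complete inhibition of growth.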

Key:
Assay in all cases: DTP human tumour cell line panel, 48 h
[1] = test system: CAKI-1 renal
[2] = test system: HL-60(TB) leukemia
[3] = test system: HOP-92 NSCLC
[4] = test system: MDA-MB-231 breast
[5] = test system: OVCAR-3 ovarian
[6] = test system: SF-268 CNS
[7] = test system: SK-MEL-28 melanoma
[8] = test system: SN12C renal
[9] = test system: SW-620 colon
[10] = test system: HCC-2998 colon
[11] = test system: OVCAR-4 ovarian

| Structure (SMILES) | TGI [1] [µM] | TGI [2] [µM] | TGI [3] [µM] | TGI [4] [µM] | TGI [5] [µM] | TGI [6] [µM] | TGI [7] [µM] | TGI [8] [µM] | TGI [9] [µM] | TGI [10] [µM] | TGI [11] [µM] | GI50 [1] [µM] | GI50 [10] [µM] | GI50 [4] [µM] | GI50 [5] [µM] | GI50 [11] [µM] | GI50 [6] [µM] | GI50 [7] [µM] | GI50 [9] [µM] |
| --- | --- | --- | --- | --- | --- | --- | --- | --- | --- | --- | --- | --- | --- | --- | --- | --- | --- | --- | --- |
| CN(C)C(=S)SCc1ccccc1 | > 100 | > 100 | > 100 | > 100 | > 100 | > 100 | > 100 | > 100 | > 100 | – | – | – | – | – | – | – | – | – | – |
| CCC(C)(C)c1ccc(Oc2cccc(C(=O)O)c2)cc1 | > 100 | > 100 | – | > 100 | 70.1 | > 100 | > 100 | > 100 | > 100 | > 100 | > 100 | – | – | – | – | – | – | – | – |
| C/C(=C\c1ccc2c(c1)OCO2)[N+](=O)[O-] | 4.41 | 5.73 | 5.53 | > 100 | – | 10.7 | 6.02 | 15.9 | > 100 | 7.34 | 14 | – | – | – | – | – | – | – | – |
| CCOC(=O)c1cc(Cl)ccc1OC(N)=O | > 100 | > 100 | > 100 | – | > 100 | > 100 | > 100 | > 100 | > 100 | > 100 | > 100 | – | – | – | – | – | – | – | – |
| C(=N/Nc1ccccn1)/c1cccnc1 | > 100 | > 100 | > 100 | > 100 | > 100 | > 100 | > 100 | > 100 | > 100 | > 100 | > 100 | – | – | – | – | – | – | – | – |
| Cc1cccc(C(O)c2ccccn2)c1O (centres undefined) | > 100 | > 100 | – | > 100 | > 100 | > 100 | > 100 | > 100 | > 100 | > 100 | – | – | – | – | – | – | – | – | – |
| Nc1nc(Cl)nc2c1ncn2C1CCC(CO)O1 (centres undefined) | > 100 | – | > 100 | – | > 100 | – | > 100 | > 100 | > 100 | – | > 100 | – | – | – | – | – | – | – | – |
| Clc1ccc(CSCc2ccc(Cl)cc2Cl)c(Cl)c1 | > 100 | > 100 | > 100 | > 100 | > 100 | > 100 | > 100 | > 100 | > 100 | 98.2 | > 100 | – | – | – | – | – | – | – | – |
| N#CC(C#N)=Cc1ccc(-c2ccc(-c3nc4ccccc4s3)cc2)s1 | 47.4 | – | – | 36.9 | 34.8 | > 100 | > 100 | – | > 100 | 65.8 | > 100 | 20.9 | 27.9 | 16.1 | 14.9 | 51.9 | 25.5 | 37.5 | 19.8 |
| CC1=C/C(=C(/c2ccc(O)c(C)c2)c2ccccc2C(=O)O)C=CC1=O | 32 | 43.6 | 34.8 | 40.4 | 33.2 | 57.1 | 40 | 36.7 | 39 | 34.5 | 33.9 | – | – | – | – | – | – | – | – |
